Measured values: patent US20230285570A1, “THERAPEUTICALLY USEFUL CURE-PRO MOLECULES FOR E3 LIGASE MEDIATED DEGRADATION OF PROTEINS, AND METHODS OF MAKING AND USING THEM” (CORNELL UNIVERSITY, priority 2020, published 2023)
“Also recorded” adds a separate entry of the source.

Legend:
Format in all cases: cell-based
[1] = biological target: T1, BRD4 (Homo sapiens, UniProt O60885); assay: CURE-PRO-mediated BRD4 degradation in HCT116 cells, WES (ProteinSimple); design: endogenous in cells
Experimental: All cell lines were purchased from ATCC or DSMZ and grown at 37° C. with 5% CO2. Human HeLa cells were cultured in complete growth medium (Dulbecco's modified Eagle's medium (DMEM) supplemented with 10% FBS); MCF7 cells were cultured in complete growth medium (Dulbecco's modified Eagle's medium (DMEM) supplemented with 10% FBS and 0.01 mg/ml human recombinant insulin (Sigma Aldrich); Namalwa and Ramos cells were cultured in complete growth medium (RPMI 1640 medium supplemented with 10% FBS); HCT116 and HT29 cells were cultured in complete growth medium (McCoy's 5a Medium supplemented with 10% FBS). For cellular degradation of BRD4 studies cells were seeded in a 12-well plate at 70-80% confluency, allowed to attach overnight, and incubated with the indicated compounds for the indicated time. When indicated, a 15-minute pretreatment with 10 μM pomalidomide, 10 μM VHL298, 10 μM Nutlin3a, 1 μM MG-132 or 1 μM Carfilzomib was performed before the addition of CURE-PROs. For washout studies, after CURE-PRO treatment, media was aspirated and incubated with complete medium for the indicated time before lysis.
WES Simple analysis was performed on WES system (ProteinSimple-Biotechne) according to the manufacturer's instructions. Total protein concentrations of cell lysates were determined by the Pierce BCA kit (Thermo Fisher). 3 μL of 0.3 μg/μL of the protein lysate was loaded onto a 12- to 230-kDa WES assay plate (ProteinSimple) where 300 nL sample was withdrawn through a capillary, subjected to electrophoretic separation of proteins by size, and followed by the simultaneous, HRP-based detection of proteins using the Anti-Rabbit Detection Module (Proteinsimple: #DM-001). The electropherograms were checked then the automatic peak detection was manually corrected if it was required.
(§1) HCT116 cells (3×10^6) were treated for 24 hours with the compounds solubilized in DMSO. Compounds were added at 1 μM-10 μM each. Standardized protein samples were electrophoresed and imaged as described in the WES ProteinSimple section above. FIGS. 59, 60, and 61 depict the concentration-dependence of CURE-PRO-mediated BRD4 degradation using MDM2 ligands.
as §1, with “62” for “59, 60,”, “63” for “61”
HCT116 cells (3×10^6) were treated for 24 hours with the compounds solubilized in DMSO. CURE-PRO monomers were added at 10 μM each and the proteasomal inhibitors at 1 μM. Standardized protein samples were electrophoresed and imaged as described in the WES ProteinSimple section above. FIG. 68 depicts the dependence of the proteasome for CURE-PRO-mediated BRD4 degradation.

[2] = biological target: T1, BRD4; assay: Summary of BRD4 degradation by CURE-PRO pairs, estimated from Western Blot or WES; design: endogenous in cells
Outline: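 Namalwa, Ramos, HeLa, MCF7, HT29 or HCT116 cells treated 24 h with compounds in DMSO; RIPA lysates analysed by Western blot (ECL) or capillary WES immunodetection. Check mark denotes 30% to 70% or higher protein degradation.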

[3] = biological target: T1, BRD4; assay: CURE-PRO-mediated BRD4 degradation in HeLa cells, Western blot; design: endogenous in cells; host or cells: HeLa; details: 24 h
Outline: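 HeLa cells (2.5×10^6) treated 24 h with DMSO-solubilized compounds, degrader pairs combined 1:1, at 1 nM-1 μM, 1-10 μM, 10 μM or 10 and 100 μM each depending on series. RIPA lysates (10-20 μg protein) run on SDS-PAGE and immunoblotted for BRD4 with ECL detection.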

Row | SMILES | BRD4 degradation ([1]; 1:1 with MDM2 ligand 8313, HCT116, 24 h, 1 μM-10 μM each) | BRD4 degradation ([1]; 1:1 with MDM2 ligand 8314, HCT116, 24 h, 1 μM-10 μM each) | Degradation of BRD4, combination with CRBN ligand 8046 ([2]; Table 1, aryl-boronic acid BRD4 ligand + 8046) | Degradation of BRD4, combination with CRBN ligand 8066 ([2]; Table 1, aryl-boronic acid BRD4 ligand + 8066) | Degradation of BRD4, combination with MDM2 ligand 8313 ([2]; Table 2, aryl-boronic acid BRD4 ligand + 8313) | Degradation of BRD4, combination with MDM2 ligand 8314 ([2]; Table 2, aryl-boronic acid BRD4 ligand + 8314) | Degradation of BRD4, combination with VHL ligand 8305 ([2]; Table 3, aryl-boronic acid BRD4 ligand + 8305) | BRD4 degradation ([3]; co-treated 1:1 with CRBN ligand 8046, HeLa, 10 μM each) | BRD4 degradation ([3]; co-treated 1:1 with CRBN ligand 8066, HeLa, 10 μM each) | BRD4 degradation ([1]; 1:1 with MDM2 ligand 8310, HCT116, 24 h, 10 μM) | BRD4 degradation ([1]; 1:1 with MDM2 ligand 8312, HCT116, 24 h, 10 μM) | Degradation of BRD4, combination with CRBN ligand 8048 ([2]; Table 4, aromatic 1,2-diol BRD4 ligand + 8048) | Degradation of BRD4, combination with MDM2 ligand 8310 ([2]; Table 5, aromatic 1,2-diol BRD4 ligand + 8310) | Degradation of BRD4, combination with MDM2 ligand 8312 ([2]; Table 5, aromatic 1,2-diol BRD4 ligand + 8312) | BRD4 degradation ([3]; BRD4 monomer alone, HeLa, 1-10 μM) | BRD4 degradation ([3]; co-treated 1:1 with CRBN ligand 8048, HeLa, 1-10 μM each) | BRD4 degradation ([3]; co-treated 1:1 with CRBN ligand 8049, HeLa, 1-10 μM each)
1 | CCNC(=O)C[C@@H]1N=C(c2ccc(Cl)cc2)c2cc(OCCCCC(=O)Nc3cccc(B(O)O)c3)ccc2-n2c(C)nnc21 [BRD-E20, (3-(5-(((4S)-6-(4-chlorophenyl)-4-(2-(ethylamino)-2-oxoethyl)-1-methyl-4H-benzo[f][1,2,4]triazolo[4,3-a][1,4]diazepin-8-yl)oxy)pentanamido)phenyl)boronic acid] | had no effect on BRD4 protein levels | caused partial loss of the BRD4 protein; also recorded: Degradation is observed | √ (A black check mark indicates efficacy of 30% to 70% or higher protein degradation) | √ (A black check mark indicates efficacy of 30% to 70% or higher protein degradation) | √ (A black check mark indicates efficacy of 30% to 70% or higher protein degradation) | √ (A black check mark indicates efficacy of 30% to 70% or higher protein degradation) | √ (A black check mark indicates efficacy of 30% to 70% or higher protein degradation) | causes degradation of BRD4; also recorded: Degradation is noted | causes degradation of BRD4; also recorded: Degradation is noted | – | – | – | – | – | – | – | –
2 | CCNC(=O)C[C@@H]1N=C(c2ccc(Cl)cc2)c2cc(OCCOCCNC(=O)c3cccc(O)c3O)ccc2-n2c(C)nnc21 [BRD-N39, N-(2-(2-(((4S)-6-(4-chlorophenyl)-4-(2-(ethylamino)-2-oxoethyl)-1-methyl-4H-benzo[f][1,2,4]triazolo[4,3-a][1,4]diazepin-8-yl)oxy)ethoxy)ethyl)-2,3-dihydroxybenzamide] | – | – | – | – | – | – | – | – | – | caused BRD4 degradation | caused BRD4 degradation | √ (A black check mark indicates efficacy of 30% to 70% or higher protein degradation) | √ (A black check mark indicates efficacy of 30% to 70% or higher protein degradation) | √ (A black check mark indicates efficacy of 30% to 70% or higher protein degradation) | there is no degradation of BRD4 | causes degradation of BRD4; also recorded: Degradation is noted | no evidence of BRD4 degradation
